Assay results from patent publication US12318382B2, “Methods of treating rheumatic diseases using trimetazidine-based compounds” (IMBRIA PHARMACEUTICALS, INC., priority 2018, dated 2025).

Experiment: Stability of CV-8972 in aqueous solution at different concentrations and pH
Type: physicochemical
Procedure: The stability of CV-8972 was analyzed. Aqueous samples containing CV-8972 at different concentrations and pH were incubated for various periods and analyzed.
Form A of CV-8972 were analyzed for stability in aqueous solution. Aqueous samples containing CV-8972 at different concentrations and pH were incubated for various periods and analyzed.

COc1ccc(CN2CCN(CCOC(=O)c3cccnc3)CC2)c(OC)c1OC [CV-8972, 2-(4-(2,3,4-trimethoxybenzyl)piperazin-1-yl)ethyl nicotinate]
Retention Time 5.6 (purity of CV-8972) (276-MBA-172 2 mg/mL pH 6 (Form A), 0 hrs): 98.01 | Retention Time 5.6 (purity of CV-8972) (276-MBA-172 2 mg/mL pH 6 (Form A), 1 hrs): 97.22 | Retention Time 5.6 (purity of CV-8972) (276-MBA-172 2 mg/mL pH 6 (Form A), 4 hrs): 97.01 | Retention Time 5.6 (purity of CV-8972) (276-MBA-172 2 mg/mL pH 6 (Form A), 6 hrs): 96.51 | Retention Time 5.6 (purity of CV-8972) (276-MBA-172 2 mg/mL pH 7 (Form A), 0 hrs): 97.53 | Retention Time 5.6 (purity of CV-8972) (276-MBA-172 2 mg/mL pH 7 (Form A), 1 hrs): 95.06 | Retention Time 5.6 (purity of CV-8972) (276-MBA-172 2 mg/mL pH 7 (Form A), 4 hrs): 93.7 | Retention Time 5.6 (purity of CV-8972) (276-MBA-172 2 mg/mL pH 7 (Form A), 6 hrs): 92.12 | Retention Time 5.6 (purity of CV-8972) (276-MBA-172 2 mg/mL pH 7 (Form A), 22 hrs): 91.07 | Retention Time 5.6 (purity of CV-8972) (276-MBA-172 10 mg/mL pH 6 (Form A), 0 hrs): 95.24 | Retention Time 5.6 (purity of CV-8972) (276-MBA-172 10 mg/mL pH 6 (Form A), 1 hrs): 93.43 | Retention Time 5.6 (purity of CV-8972) (276-MBA-172 10 mg/mL pH 6 (Form A), 4 hrs): 91.82 | Retention Time 5.6 (purity of CV-8972) (276-MBA-172 10 mg/mL pH 6 (Form A), 6 hrs): 91.8 | Retention Time 5.6 (purity of CV-8972) (276-MBA-172 10 mg/mL pH 6 (Form A), 22 hrs): 89.66 | Retention Time 5.6 (purity of CV-8972) (276-MBA-172 10 mg/mL pH 7 (Form A), 0 hrs): 92.85 | Retention Time 5.6 (purity of CV-8972) (276-MBA-172 10 mg/mL pH 7 (Form A), 1 hrs): 89.05 | Retention Time 5.6 (purity of CV-8972) (276-MBA-172 10 mg/mL pH 7 (Form A), 4 hrs): 86.8 | Retention Time 5.6 (purity of CV-8972) (276-MBA-172 10 mg/mL pH 7 (Form A), 6 hrs): 84.79 | Retention Time 5.6 (purity of CV-8972) (289-MBA-15-A 2 mg/mL pH 6 (Form B), 0 hrs): 97.48 | Retention Time 5.6 (purity of CV-8972) (289-MBA-15-A 2 mg/mL pH 6 (Form B), 1 hrs): 95.1 | Retention Time 5.6 (purity of CV-8972) (289-MBA-15-A 2 mg/mL pH 6 (Form B), 4 hrs): 92.45 | Retention Time 5.6 (purity of CV-8972) (289-MBA-15-A 2 mg/mL pH 6 (Form B), 6 hrs): 90.65 | Retention Time 5.6 (purity of CV-8972) (289-MBA-15-A 2 mg/mL pH 6 (Form B), 22 hrs): 89.15 | Retention Time 5.6 (purity of CV-8972) (289-MBA-15-A 2 mg/mL pH 7 (Form B), 0 hrs): 97.48 | Retention Time 5.6 (purity of CV-8972) (289-MBA-15-A 2 mg/mL pH 7 (Form B), 1 hrs): 95.46 | Retention Time 5.6 (purity of CV-8972) (289-MBA-15-A 2 mg/mL pH 7 (Form B), 4 hrs): 93.92 | Retention Time 5.6 (purity of CV-8972) (289-MBA-15-A 10 mg/mL pH 6 (Form B), 0 hrs): 95.36 | Retention Time 5.6 (purity of CV-8972) (289-MBA-15-A 10 mg/mL pH 6 (Form B), 1 hrs): 94.81 | Retention Time 5.6 (purity of CV-8972) (289-MBA-15-A 10 mg/mL pH 6 (Form B), 4 hrs): 94.69 | Retention Time 5.6 (purity of CV-8972) (289-MBA-15-A 10 mg/mL pH 6 (Form B), 6 hrs): 94.39 | Retention Time 5.6 (purity of CV-8972) (289-MBA-15-A 10 mg/mL pH 6 (Form B), 22 hrs): 93.93 | Retention Time 5.6 (purity of CV-8972) (289-MBA-15-A 10 mg/mL pH 7 (Form B), 0 hrs): 91.5 | Retention Time 5.6 (purity of CV-8972) (289-MBA-15-A 10 mg/mL pH 7 (Form B), 1 hrs): 86.18 | Retention Time 5.6 (purity of CV-8972) (289-MBA-15-A 10 mg/mL pH 7 (Form B), 4 hrs): 82.36 | Retention Time 5.6 (purity of CV-8972) (289-MBA-15-A 10 mg/mL pH 7 (Form B), 6 hrs): 79.37
